From ChEMBL document CHEMBL1649524, “Resistance selection studies comparing the activity of razupenem (PTZ601) to vancomycin and linezolid against eight methicillin-resistant and two methicillin-susceptible Staphylococcus aureus strains” (2009)
Values after ≈ are worked out from the molar mass of the structure shown.

Assays:
Assay type in all cases: functional
[1] = test system: Staphylococcus aureus; experiment: Antimicrobial activity against heterogeneous vancomycin-intermediate Staphylococcus aureus 168 measured on day 25 by macrodilution method; conditions: Staphylococcus aureus, 168, 600 h
[2] = test system: Staphylococcus aureus; experiment: Antimicrobial activity against vancomycin-resistant Staphylococcus aureus 509 measured on day 25 by macrodilution method; conditions: Staphylococcus aureus, 509, 600 h
[3] = test system: Staphylococcus aureus; experiment: Antimicrobial activity against heterogeneous vancomycin-intermediate Staphylococcus aureus 168 after 50 passages by macrodilution method
[4] = test system: Staphylococcus aureus; experiment: Antimicrobial activity against heterogeneous vancomycin-intermediate Staphylococcus aureus 873 measured on day 30 by macrodilution method
[5] = test system: Staphylococcus aureus; experiment: Antimicrobial activity against vancomycin-intermediate Staphylococcus aureus 1287 measured on day 25 by macrodilution method; conditions: Staphylococcus aureus, 1287, 600 h
[6] = test system: Staphylococcus aureus; experiment: Antimicrobial activity against methicillin-susceptible Staphylococcus aureus 543 measured after 10 antibiotic-free subculturing by macrodilution method
[7] = test system: Staphylococcus aureus; experiment: Antimicrobial activity against methicillin-susceptible Staphylococcus aureus 540 measured on day 35 by macrodilution method
[8] = test system: Staphylococcus aureus; experiment: Antimicrobial activity against methicillin-resistant Staphylococcus aureus 547 measured on day 35 by macrodilution method
[9] = test system: Staphylococcus aureus; experiment: Antimicrobial activity against heterogeneous vancomycin-intermediate Staphylococcus aureus 168 measured on day 20 by macrodilution method; conditions: Staphylococcus aureus, 168, 480 h
[10] = test system: Staphylococcus aureus; experiment: Antimicrobial activity against heterogeneous vancomycin-intermediate Staphylococcus aureus 873 measured on day 40 by macrodilution method
[11] = test system: Staphylococcus aureus; experiment: Antimicrobial activity against methicillin-resistant Staphylococcus aureus 547 measured on day 45 by macrodilution method
[12] = test system: Staphylococcus aureus; experiment: Antimicrobial activity against methicillin-susceptible Staphylococcus aureus 543 measured on day 15 by macrodilution method; conditions: Staphylococcus aureus, 543, 360 h
[13] = test system: Staphylococcus aureus; experiment: Antimicrobial activity against methicillin-susceptible Staphylococcus aureus 543 after 15 passages by macrodilution method
[14] = test system: Staphylococcus aureus; experiment: Antimicrobial activity against vancomycin-intermediate Staphylococcus aureus 1287 measured on day 10 by macrodilution method; conditions: Staphylococcus aureus, 1287, 240 h
[15] = test system: Staphylococcus aureus; experiment: Antimicrobial activity against vancomycin-intermediate Staphylococcus aureus 1287 after 50 passages by macrodilution method
[16] = test system: Staphylococcus aureus; experiment: Antimicrobial activity against methicillin-resistant Staphylococcus aureus 547 measured on day 30 by macrodilution method
[17] = test system: Staphylococcus aureus; experiment: Antimicrobial activity against heterogeneous vancomycin-intermediate Staphylococcus aureus 168 measured on day 10 by macrodilution method; conditions: Staphylococcus aureus, 168, 240 h
[18] = test system: Staphylococcus aureus; experiment: Antimicrobial activity against vancomycin-resistant Staphylococcus aureus 510 measured on day 20 by macrodilution method; conditions: Staphylococcus aureus, 510, 480 h
[19] = test system: Staphylococcus aureus; experiment: Antimicrobial activity against methicillin-susceptible Staphylococcus aureus 540 measured on day 15 by macrodilution method; conditions: Staphylococcus aureus, 540, 360 h
[20] = test system: Staphylococcus aureus; experiment: Antimicrobial activity against heterogeneous vancomycin-intermediate Staphylococcus aureus 168 measured on day 15 by macrodilution method; conditions: Staphylococcus aureus, 168, 360 h
[21] = test system: Staphylococcus aureus; experiment: Antimicrobial activity against methicillin-resistant Staphylococcus aureus 525 measured on day 45 by macrodilution method
[22] = test system: Staphylococcus aureus; experiment: Antimicrobial activity against vancomycin-resistant Staphylococcus aureus 509 after 28 passages by macrodilution method
[23] = test system: Staphylococcus aureus; experiment: Antimicrobial activity against vancomycin-resistant Staphylococcus aureus 510 after 50 passages by macrodilution method
[24] = test system: Staphylococcus aureus; experiment: Antimicrobial activity against vancomycin-intermediate Staphylococcus aureus 1287 measured on day 5 by macrodilution method; conditions: Staphylococcus aureus, 1287, 120 h
[25] = test system: Staphylococcus aureus; experiment: Antimicrobial activity against methicillin-susceptible Staphylococcus aureus 540 measured on day 20 by macrodilution method; conditions: Staphylococcus aureus, 540, 480 h
[26] = test system: Staphylococcus aureus; experiment: Antimicrobial activity against heterogeneous vancomycin-intermediate Staphylococcus aureus 873 measured on day 35 by macrodilution method
[27] = test system: Staphylococcus aureus; experiment: Antimicrobial activity against vancomycin-intermediate Staphylococcus aureus 1287 measured on day 15 by macrodilution method; conditions: Staphylococcus aureus, 1287, 360 h
[28] = test system: Staphylococcus aureus; experiment: Antimicrobial activity against methicillin-susceptible Staphylococcus aureus 540 measured on day 25 by macrodilution method; conditions: Staphylococcus aureus, 540, 600 h
[29] = test system: Staphylococcus aureus; experiment: Antimicrobial activity against methicillin-resistant Staphylococcus aureus 547 after 48 passages by macrodilution method
[30] = test system: Staphylococcus aureus; experiment: Antimicrobial activity against vancomycin-resistant Staphylococcus aureus 509 measured on day 20 by macrodilution method; conditions: Staphylococcus aureus, 509, 480 h
[31] = test system: Staphylococcus aureus; experiment: Antimicrobial activity against methicillin-resistant Staphylococcus aureus 547 measured on day 20 by macrodilution method; conditions: Staphylococcus aureus, 547, 480 h
[32] = test system: Staphylococcus aureus; experiment: Antimicrobial activity against vancomycin-intermediate Staphylococcus aureus 1287 measured on day 30 by macrodilution method
[33] = test system: Staphylococcus aureus; experiment: Antimicrobial activity against methicillin-resistant Staphylococcus aureus 547 measured on day 15 by macrodilution method; conditions: Staphylococcus aureus, 547, 360 h
[34] = test system: Staphylococcus aureus; experiment: Antimicrobial activity against heterogeneous vancomycin-intermediate Staphylococcus aureus 168 measured on day 35 by macrodilution method
[35] = test system: Staphylococcus aureus; experiment: Antimicrobial activity against heterogeneous vancomycin-intermediate Staphylococcus aureus 873 measured on day 50 by macrodilution method
[36] = test system: Staphylococcus aureus; experiment: Antimicrobial activity against methicillin-resistant Staphylococcus aureus 547 measured on day 40 by macrodilution method
[37] = test system: Staphylococcus aureus; experiment: Antimicrobial activity against vancomycin-intermediate Staphylococcus aureus 1287 measured on day 20 by macrodilution method; conditions: Staphylococcus aureus, 1287, 480 h
[38] = test system: Staphylococcus aureus; experiment: Antimicrobial activity against vancomycin-intermediate Staphylococcus aureus 1287 measured on day 35 by macrodilution method
[39] = test system: Staphylococcus aureus; experiment: Antimicrobial activity against methicillin-resistant Staphylococcus aureus 525 measured on day 50 by macrodilution method
[40] = test system: Staphylococcus aureus; experiment: Antimicrobial activity against methicillin-resistant Staphylococcus aureus 525 measured on day 35 by macrodilution method
[41] = test system: Staphylococcus aureus; experiment: Antimicrobial activity against heterogeneous vancomycin-intermediate Staphylococcus aureus 168 measured on day 40 by macrodilution method
[42] = test system: Staphylococcus aureus; experiment: Antimicrobial activity against methicillin-resistant Staphylococcus aureus 547 measured on day 25 by macrodilution method; conditions: Staphylococcus aureus, 547, 600 h
[43] = test system: Staphylococcus aureus; experiment: Antimicrobial activity against vancomycin-intermediate Staphylococcus aureus 1287 measured after 10 antibiotic-free subculturing by macrodilution method
[44] = test system: Staphylococcus aureus; experiment: Antimicrobial activity against heterogeneous vancomycin-intermediate Staphylococcus aureus 873 after 50 passages by macrodilution method
[45] = test system: Staphylococcus aureus; experiment: Antimicrobial activity against vancomycin-intermediate Staphylococcus aureus 1287 measured on day 45 by macrodilution method
[46] = test system: Staphylococcus aureus; experiment: Antimicrobial activity against heterogeneous vancomycin-intermediate Staphylococcus aureus 168 measured on day 45 by macrodilution method
[47] = test system: Staphylococcus aureus; experiment: Antimicrobial activity against vancomycin-resistant Staphylococcus aureus 509 measured on day 40 by macrodilution method
[48] = test system: Staphylococcus aureus; experiment: Antimicrobial activity against methicillin-susceptible Staphylococcus aureus 540 measured on day 30 by macrodilution method
[49] = test system: Staphylococcus aureus; experiment: Antimicrobial activity against vancomycin-intermediate Staphylococcus aureus 1287 measured on day 50 by macrodilution method
[50] = test system: Staphylococcus aureus; experiment: Antimicrobial activity against vancomycin-resistant Staphylococcus aureus 510 measured on day 30 by macrodilution method
[51] = test system: Staphylococcus aureus; experiment: Antimicrobial activity against vancomycin-resistant Staphylococcus aureus 509 measured after 10 antibiotic-free subculturing by macrodilution method
[52] = test system: Staphylococcus aureus; experiment: Antimicrobial activity against methicillin-resistant Staphylococcus aureus 525 measured on day 20 by macrodilution method; conditions: Staphylococcus aureus, 525, 480 h
[53] = test system: Staphylococcus aureus; experiment: Antimicrobial activity against vancomycin-intermediate Staphylococcus aureus 1287 measured on day 40 by macrodilution method
[54] = test system: Staphylococcus aureus; experiment: Antimicrobial activity against heterogeneous vancomycin-intermediate Staphylococcus aureus 168 measured on day 50 by macrodilution method
[55] = test system: Staphylococcus aureus; experiment: Antimicrobial activity against methicillin-susceptible Staphylococcus aureus 543 measured on day 10 by macrodilution method; conditions: Staphylococcus aureus, 543, 240 h
[56] = test system: Staphylococcus aureus; experiment: Antimicrobial activity against methicillin-resistant Staphylococcus aureus 525 after 50 passages by macrodilution method
[57] = test system: Staphylococcus aureus; experiment: Antimicrobial activity against vancomycin-resistant Staphylococcus aureus 510 measured on day 25 by macrodilution method; conditions: Staphylococcus aureus, 510, 600 h
[58] = test system: Staphylococcus aureus; experiment: Antimicrobial activity against methicillin-resistant Staphylococcus aureus 525 measured on day 15 by macrodilution method; conditions: Staphylococcus aureus, 525, 360 h
[59] = test system: Staphylococcus aureus; experiment: Antimicrobial activity against heterogeneous vancomycin-intermediate Staphylococcus aureus 873 measured on day 45 by macrodilution method
[60] = test system: Staphylococcus aureus; experiment: Antimicrobial activity against methicillin-resistant Staphylococcus aureus 525 measured on day 40 by macrodilution method
[61] = test system: Staphylococcus aureus; experiment: Antimicrobial activity against methicillin-resistant Staphylococcus aureus 525 measured on day 25 by macrodilution method; conditions: Staphylococcus aureus, 525, 600 h
[62] = test system: Staphylococcus aureus; experiment: Antimicrobial activity against vancomycin-resistant Staphylococcus aureus 510 measured on day 35 by macrodilution method
[63] = test system: Staphylococcus aureus; experiment: Antimicrobial activity against vancomycin-resistant Staphylococcus aureus 510 measured on day 50 by macrodilution method

Compound CC(=O)NC[C@H]1CN(c2ccc(N3CCOCC3)c(F)c2)C(=O)O1 [LINEZOLID] has an MIC [1] of 8 µg/mL (≈ 23.7 µM), an MIC [2] of 16 µg/mL (≈ 47.4 µM) and an MIC [3] of 16 µg/mL (≈ 47.4 µM). The MIC [4] was 16 µg/mL (≈ 47.4 µM), the MIC [5] was 8 µg/mL (≈ 23.7 µM) and the MIC [6] was 32 µg/mL (≈ 94.9 µM). For the same compound, the MIC [7] was 32 µg/mL (≈ 94.9 µM), the MIC [8] was 16 µg/mL (≈ 47.4 µM) and the MIC [9] was 8 µg/mL (≈ 23.7 µM). The MIC [10] was 8 µg/mL (≈ 23.7 µM), the MIC [11] was 32 µg/mL (≈ 94.9 µM) and the MIC [12] was 32 µg/mL (≈ 94.9 µM). For the same compound, the MIC [13] was 32 µg/mL (≈ 94.9 µM), the MIC [14] was 8 µg/mL (≈ 23.7 µM) and the MIC [15] was 16 µg/mL (≈ 47.4 µM). For the same compound, the MIC [16] was 16 µg/mL (≈ 47.4 µM), the MIC [17] was 8 µg/mL (≈ 23.7 µM) and the MIC [18] was 8 µg/mL (≈ 23.7 µM). The MIC [19] was 16 µg/mL (≈ 47.4 µM), the MIC [20] was 8 µg/mL (≈ 23.7 µM) and the MIC [21] was 16 µg/mL (≈ 47.4 µM). For the same compound, the MIC [22] was 16 µg/mL (≈ 47.4 µM), the MIC [23] was 16 µg/mL (≈ 47.4 µM) and the MIC [24] was 8 µg/mL (≈ 23.7 µM). The MIC [25] was 16 µg/mL (≈ 47.4 µM), the MIC [26] was 8 µg/mL (≈ 23.7 µM) and the MIC [27] was 8 µg/mL (≈ 23.7 µM). For the same compound, the MIC [28] was 16 µg/mL (≈ 47.4 µM), the MIC [29] was 32 µg/mL (≈ 94.9 µM) and the MIC [30] was 8 µg/mL (≈ 23.7 µM). The MIC [31] was 8 µg/mL (≈ 23.7 µM), the MIC [32] was 16 µg/mL (≈ 47.4 µM) and the MIC [33] was 8 µg/mL (≈ 23.7 µM). It also gave an MIC [34] of 8 µg/mL (≈ 23.7 µM), an MIC [35] of 8 µg/mL (≈ 23.7 µM) and an MIC [36] of 16 µg/mL (≈ 47.4 µM). The MIC [37] was 8 µg/mL (≈ 23.7 µM), the MIC [38] was 16 µg/mL (≈ 47.4 µM) and the MIC [39] was 16 µg/mL (≈ 47.4 µM). For the same compound, the MIC [40] was 16 µg/mL (≈ 47.4 µM), the MIC [41] was 8 µg/mL (≈ 23.7 µM) and the MIC [42] was 16 µg/mL (≈ 47.4 µM). It also gave an MIC [43] of 8 µg/mL (≈ 23.7 µM), an MIC [44] of 8 µg/mL (≈ 23.7 µM) and an MIC [45] of 16 µg/mL (≈ 47.4 µM). It also gave an MIC [46] of 8 µg/mL (≈ 23.7 µM), an MIC [47] of 8 µg/mL (≈ 23.7 µM) and an MIC [48] of 16 µg/mL (≈ 47.4 µM). The MIC [49] was 16 µg/mL (≈ 47.4 µM), the MIC [50] was 8 µg/mL (≈ 23.7 µM) and the MIC [51] was 32 µg/mL (≈ 94.9 µM). For the same compound, the MIC [52] was 16 µg/mL (≈ 47.4 µM), the MIC [53] was 16 µg/mL (≈ 47.4 µM) and the MIC [54] was 16 µg/mL (≈ 47.4 µM). It also gave an MIC [55] of 8 µg/mL (≈ 23.7 µM), an MIC [56] of 16 µg/mL (≈ 47.4 µM) and an MIC [57] of 8 µg/mL (≈ 23.7 µM). For the same compound, the MIC [58] was 16 µg/mL (≈ 47.4 µM), the MIC [59] was 8 µg/mL (≈ 23.7 µM) and the MIC [60] was 16 µg/mL (≈ 47.4 µM). For the same compound, the MIC [61] was 16 µg/mL (≈ 47.4 µM), the MIC [62] was 8 µg/mL (≈ 23.7 µM) and the MIC [63] was 16 µg/mL (≈ 47.4 µM).
